Read-outs that look alike come from different tables or passages of the source.
Target: T1, human APJ receptor (Homo sapiens, UniProt P35414)
T1 construct: expressed in transfected cells; host or cells: HEK293
T1 sequence (P35414 1-380): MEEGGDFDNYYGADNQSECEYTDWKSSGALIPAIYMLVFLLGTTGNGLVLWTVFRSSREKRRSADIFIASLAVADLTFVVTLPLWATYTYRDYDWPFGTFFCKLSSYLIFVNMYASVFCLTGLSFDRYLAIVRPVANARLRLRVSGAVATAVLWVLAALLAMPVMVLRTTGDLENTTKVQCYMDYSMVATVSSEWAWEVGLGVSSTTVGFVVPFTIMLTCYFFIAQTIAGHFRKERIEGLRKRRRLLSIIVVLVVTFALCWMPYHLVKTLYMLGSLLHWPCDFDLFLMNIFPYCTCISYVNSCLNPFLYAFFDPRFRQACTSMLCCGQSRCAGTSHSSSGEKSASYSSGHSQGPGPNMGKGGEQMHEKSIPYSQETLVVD
Assay: Intracellular cAMP accumulation assay (APJ hcAMP, HTRF)
Format: cell-based
Conditions: HEK293 cells stably expressing human APJ receptor, inhibition of forskolin-mediated cAMP production
Protocol: Intracellular cAMP Accumulation Assay
HEK293 cells stably expressing human APJ receptor were used to assess the activity of compounds. Cultured cells were detached and resuspended in the cAMP Homogeneous Time-Resolved Fluorescence (HTRF) assay buffer (Cisbio cat; #62AM4PEJ). The assay was performed in 384-well assay plates (Perkin-Elmer; cat #6008289) according to assay protocol provided by the manufacturer. Serial dilutions of a compound together with assay buffer containing […] IBMX and 2 μM forskolin were added to each well containing 5,000 cells and incubated for 30 minutes at room temperature. Subsequently, cAMP D2 reagent was added in the lysis buffer followed by the EuK antibody (Cisbio; cat #62AM4PEJ) and incubated for 60 min. The fluorescence emission ratio was measured using fluorometer. The intracellular cAMP concentrations (compound-stimulated inhibition of forskolin-mediated cAMP production) were calculated by extrapolation from a standard curve using known cAMP concentrations. The EC50 values were obtained by fitting the data to a sigmoidal concentration-response curve with variable slope. The maximal achievable inhibition of forskolin-induced cAMP levels (Ymax) for each compound was expressed as relative percentage of inhibition attained using pyroglutamated apelin-13 ((Pyr1)apelin-13) peptide, which was set to 100%.
The examples disclosed below were tested in the APJ in vitro assays described above and were found having human APJ cyclic AMP (hcAMP) activity. The EC50 value of each compound is presented at the end of the example description.
The biological activity of the exemplified compounds of this invention determined by the assay described above is shown at the end of each example.

[1] = Table 1, read-out: hAPJ cAMP EC50 Potency range
[2] = hAPJ cAMP EC50 Potency range, Table 1

Row | EC50 [1] | Structure (SMILES) | also measured
1 | 0.01 to 10 nM | CCCCc1nc(O)c(S(=O)(=O)c2ccc(-c3ccc(F)nc3)cc2)c(O)c1N(C)c1ccccc1 [Example 012, 6-butyl-3-((4-(6-fluoropyridin-3-yl)phenyl)sulfonyl)-5-(methyl(phenyl)amino)pyridine-2,4-diol] | 
2 |  | CCN(c1ccccc1)c1c(-c2cccc(C)c2)nc(O)c(C(=O)N2CCC(c3ncc(F)cc3F)C2)c1O (stereo not drawn) [Example 132, (3-(3,5-difluoropyridin-2-yl)pyrrolidin-1-yl)(5-(ethyl(phenyl)amino)-2,4-dihydroxy-6-(m-tolyl)pyridin-3-yl)methanone] | EC50 (read-out: hAPJ cAMP EC50 Potency range, Table 1): 0.01 to 10 nM
3 | 0.01 to 10 nM | CCCCc1nc(O)c(S(=O)(=O)c2ccc(-c3cccnc3C)cc2)c(O)c1N(C)c1cccc(OC)c1 [Example 039, 6-butyl-5-((3-methoxyphenyl)(methyl)amino)-3-((4-(2-methylpyridin-3-yl)phenyl)sulfonyl)pyridine-2,4-diol] | 
4 | 0.01 to 10 nM | CCN(c1ccccc1)c1c(-c2cccc(C)c2)nc(O)c(S(=O)(=O)c2ccc(-c3ccnc(F)c3C)cc2)c1O [Example 122, 5-(ethyl(phenyl)amino)-3-((4-(2-fluoro-3-methylpyridin-4-yl)phenyl)sulfonyl)-6-(m-tolyl)pyridine-2,4-diol] | 
5 | 0.01 to 10 nM | CCCCc1nc(O)c(S(=O)(=O)c2ccc(-c3ccnc(F)c3C)cc2)c(O)c1N(C)c1ccc(C)cc1 [Example 092, 6-butyl-3-((4-(2-fluoro-3-methylpyridin-4-yl)phenyl)sulfonyl)-5-(methyl(p-tolyl)amino)pyridine-2,4-diol] | 
6 | 0.01 to 10 nM | CCN(c1cccc(C#N)c1)c1c(-c2ccn(C)n2)nc(O)c(S(=O)(=O)c2ccc(-c3cccnc3C)cc2)c1O [Example 217] | 
7 | 0.01 to 10 nM | CCCCc1nc(O)c(S(=O)(=O)c2ccc(-n3cc(Cl)ccc3=O)cc2)c(O)c1N(CC)c1ccccc1 [Example 082, 1-(4-((6-butyl-5-(ethyl(phenyl)amino)-2,4-dihydroxypyridin-3-yl)sulfonyl)phenyl)-5-chloropyridin-2(1H)-one] | 
8 | 0.01 to 10 nM | CCCCc1nc(O)c(S(=O)(=O)c2ccc(-c3ccc(F)nc3C)cc2)c(O)c1N(CC)c1cc(C)cc(C)c1 [Example 135, 6-butyl-5-((3,5-dimethylphenyl)(ethyl)amino)-3-((4-(6-fluoro-2-methylpyridin-3-yl)phenyl)sulfonyl)pyridine-2,4-diol] | 
9 | 0.01 to 10 nM | CCN(c1ccccc1)c1c(-c2cnc(C)s2)nc(O)c(S(=O)(=O)c2ccc(-c3ccc(F)nc3C)cc2)c1O [Example 190, 5-(ethyl(phenyl)amino)-3-((4-(6-fluoro-2-methylpyridin-3-yl)phenyl)sulfonyl)-6-(2-methylthiazol-5-yl)pyridine-2,4-diol] | 
10 | 10 to 100 nM | CCCCc1nc(O)c(S(=O)(=O)c2ccc(-c3ccc(F)nc3C)cc2)c(O)c1N(C)c1cccc(C)c1 [Example 095, 6-butyl-3-((4-(6-fluoro-2-methylpyridin-3-yl)phenyl)sulfonyl)-5-(methyl(m-tolyl)amino)pyridine-2,4-diol] | 
11 | 0.01 to 10 nM | CCCCc1nc(O)c(S(=O)(=O)c2ccc(-c3ccncc3C)cc2)c(O)c1N(CC)c1cccc(C#N)c1 [Example 170, 3-((2-butyl-4,6-dihydroxy-5-((4-(3-methylpyridin-4-yl)phenyl)sulfonyl)pyri-din-3-yl)(ethyl)amino)benzonitrile] | 
12 | 0.01 to 10 nM | CCN(c1ccccc1)c1c(-c2cnn(C)c2)nc(O)c(S(=O)(=O)c2ccc(-c3ccccc3C(=O)NC3CC3)cc2)c1O [Example 153, N-cyclopropyl-4′-((5-(ethyl(phenyl)amino)-2,4-dihydroxy-6-(1-methyl-1H-pyrazol-4-yl)pyridin-3-yl)sulfonyl)-[1,1′-biphenyl]-2-carboxamide] | 
13 | 0.01 to 10 nM | CCCCc1nc(O)c(S(=O)(=O)c2ccc(-c3ccccc3C(N)=O)cc2)c(O)c1N(C)c1ccccc1 [Example 065, 4′-((6-butyl-2,4-dihydroxy-5-(methyl(phenyl)amino)pyridin-3-yl)sulfonyl)-[1,1′-biphenyl]-2-carboxamide] | 
14 | 0.01 to 10 nM | CCCCc1nc(O)c(S(=O)(=O)c2ccc(-c3ccncc3C)cc2)c(O)c1N(C)c1ccccc1 [Example 014, 6-butyl-5-(methyl(phenyl)amino)-3-((4-(3-methylpyridin-4-yl)phenyl)sulfonyl)pyridine-2,4-diol] | 
15 | 0.01 to 10 nM | CCCCc1nc(O)c(S(=O)(=O)c2ccc(-c3cccnc3C)cc2)c(O)c1N(C)c1ccc(Cl)cc1 [Example 111, 6-butyl-5-((4-chlorophenyl)(methyl)amino)-3-((4-(2-methylpyridin-3-yl)phenyl)sulfonyl)pyridine-2,4-diol] | 
16 | 10 to 100 nM | CCCCc1nc(O)c(S(=O)(=O)c2ccc(-c3ccncc3C)cc2)c(O)c1N1CCCCc2ccccc21 [Example 169, 6-butyl-3-((4-(3-methylpyridin-4-yl)phenyl)sulfonyl)-5-(2,3,4,5-tetrahydro-1H-benzo[b]azepin-1-yl)pyridine-2,4-diol] | 
17 | 0.01 to 10 nM | CCCCc1nc(O)c(S(=O)(=O)c2ccc(-c3ccccc3C(N)=O)cc2)c(O)c1N(CC)c1ccccc1 [Example 085, 4′-((6-butyl-5-(ethyl(phenyl)amino)-2,4-dihydroxypyridin-3-yl)sulfonyl)-[1,1′-biphenyl]-2-carboxamide] | 
18 | 0.01 to 10 nM | CCCCc1nc(O)c(S(=O)(=O)c2ccc(-c3ccc(F)nc3C)cc2)c(O)c1N(C)c1ccccc1 [Example 015, 6-butyl-3-((4-(6-fluoro-2-methylpyridin-3-yl)phenyl)sulfonyl)-5-(methyl(phenyl)amino)pyridine-2,4-diol] | 
19 | 0.01 to 10 nM | CCN(c1cccc(C#N)c1)c1c(-c2ccn(C)n2)nc(O)c(S(=O)(=O)c2ccc(-c3ccc(F)nc3C)cc2)c1O [Example 213, 3-(ethyl(5-((4-(6-fluoro-2-methylpyridin-3-yl)phenyl)sulfonyl)-4,6-dihydroxy-2-(1-methyl-1H-pyrazol-3-yl)pyridin-3-yl)amino)benzonitrile] | 
20 | 0.01 to 10 nM | CCCCc1nc(O)c(S(=O)(=O)c2ccc(-c3ccnc(F)c3C)cc2)c(O)c1N(C)c1cccc(C)c1 [Example 091, 6-butyl-3-((4-(2-fluoro-3-methylpyridin-4-yl)phenyl)sulfonyl)-5-(methyl(m-tolyl)amino)pyridine-2,4-diol] | 
21 | 0.01 to 10 nM | CCN(c1ccccc1)c1c(-c2cnc(C)s2)nc(O)c(S(=O)(=O)c2ccc(-c3cccc(C(=O)NC)c3)cc2)c1O [Example 188, 4′-((5-(ethyl(phenyl)amino)-2,4-dihydroxy-6-(2-methylthiazol-5-yl)pyridin-3-yl)suflonyl)-N-methyl-[1,1′-biphenyl]-3-carboxamide] | 
22 |  | CCCCc1nc(O)c(C(=O)N2CC[C@@H](c3ccccc3)C2)c(O)c1N(C)c1ccccc1 [Example 007, (S)-(6-butyl-2,4-dihydroxy-5-(methyl(phenyl)amino)pyridin-3-yl)(3-phenylpyrrolidin-1-yl)methanone] | EC50 [2]: 10 to 100 nM
23 | 0.01 to 10 nM | CCCCc1nc(O)c(S(=O)(=O)c2ccc(-c3ccncc3C)cc2)c(O)c1N(CC)c1ccccc1 [Example 078, 6-butyl-5-(ethyl(phenyl)amino)-3-((4-(3-methylpyridin-4-yl)phenyl)sulfonyl)pyridine-2,4-diol] | 
24 | 10 to 100 nM | CCCCc1nc(O)c(S(=O)(=O)c2ccc(-c3ccnc(F)c3C)cc2)c(O)c1N1CCCCC1c1ccccc1 (stereo not drawn) [Example 128, 6-butyl-3-((4-(2-fluoro-3-methylpyridin-4-yl)phenyl)sulfonyl)-5-(2-phenylpiperidin-1-yl)pyridine-2,4-diol] | 
25 | 0.01 to 10 nM | CCN(c1ccccc1)c1c(-c2cnn(C)c2)nc(O)c(S(=O)(=O)c2ccc(-c3ccnc(F)c3C)cc2)c1O [Example 149, 5-(ethyl(phenyl)amino)-3-((4-(2-fluoro-3-methylpyridin-4-yl)phenyl)sulfonyl)-6-(1-methyl-1H-pyrazol-4-yl)pyridine-2,4-diol] | 
26 |  | CCCCc1nc(O)c(C(=O)N2CC[C@H](c3ccccc3)C2)c(O)c1N(c1ccccc1)C(C)C [Example 023, (R)-(6-butyl-2,4-dihydroxy-5-(isopropyl(phenyl)amino)pyridin-3-yl)(3-phenylpyrrolidin-1-yl)methanone] | EC50 [2]: 10 to 100 nM
27 |  | CCCCc1nc(O)c(S(=O)(=O)c2ccc(C3CC3)cc2)c(O)c1N(CC)c1ccccc1 [Example 004, 6-butyl-3-((4-cyclopropylphenyl)sulfonyl)-5-(ethyl(phenyl)amino)pyridine-2,4-diol] | EC50 (read-out: Human APJ cAMP Potency range): 0.01 to 10 nM

From patent US10669258B2, “3-sulfonyl-5-aminopyridine-2,4-diol APJ agonists” (BRISTOL-MYERS SQUIBB COMPANY, priority 2016, dated 2020)
